These results are taken from patent US7217411B2, “CeSERT genes, proteins, and modulatory compounds” (Massachusetts Institute of Technology, priority 2000, dated 2007).

Values joined by “and” are separate entries in the source; they are usually repeats but may differ in a detail not shown here. Equal values may be shown once.

In data set [1] the target is T1, MOD-5 CeSERT (Caenorhabditis elegans, UniProt Q963F3).
T1 sequence (Q963F3 1-671): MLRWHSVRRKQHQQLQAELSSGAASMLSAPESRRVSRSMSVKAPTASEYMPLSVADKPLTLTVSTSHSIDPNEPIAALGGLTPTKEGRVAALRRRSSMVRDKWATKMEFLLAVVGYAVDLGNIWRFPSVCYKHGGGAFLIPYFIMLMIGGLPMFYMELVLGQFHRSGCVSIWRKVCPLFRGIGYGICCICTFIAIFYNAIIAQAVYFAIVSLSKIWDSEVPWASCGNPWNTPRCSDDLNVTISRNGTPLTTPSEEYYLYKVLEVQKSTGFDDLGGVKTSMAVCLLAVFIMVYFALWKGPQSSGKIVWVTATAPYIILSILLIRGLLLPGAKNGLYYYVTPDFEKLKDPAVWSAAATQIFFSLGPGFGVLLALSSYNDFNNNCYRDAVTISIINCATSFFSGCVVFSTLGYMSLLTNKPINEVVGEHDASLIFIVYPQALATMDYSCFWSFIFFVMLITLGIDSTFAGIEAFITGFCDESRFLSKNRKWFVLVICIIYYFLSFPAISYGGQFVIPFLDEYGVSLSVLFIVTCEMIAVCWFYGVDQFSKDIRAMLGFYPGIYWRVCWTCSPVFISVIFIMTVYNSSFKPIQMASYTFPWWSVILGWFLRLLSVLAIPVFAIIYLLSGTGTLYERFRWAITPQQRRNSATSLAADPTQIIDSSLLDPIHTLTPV
Put plainly: cell-based.

Data set [2] addresses T1, MOD-5 CeSERT. Put plainly: MOD-5-mediated [^3H]serotonin uptake in HEK293 cell lines stably expressing MOD-5. The conditions noted are these: for MOD-5-mediated uptake of radiolabeled neurotransmitter: 50 μM radiolabeled neurotransmitter vs 1 μM [^3H]serotonin; for transport of [^3H]serotonin by MOD-5, % of control: inhibitor 100 μM, [^3H]serotonin 50 nM.
Data set [3] has as its target T2, dSERT (Drosophila melanogaster, UniProt P51905).
T2 sequence (P51905 1-622): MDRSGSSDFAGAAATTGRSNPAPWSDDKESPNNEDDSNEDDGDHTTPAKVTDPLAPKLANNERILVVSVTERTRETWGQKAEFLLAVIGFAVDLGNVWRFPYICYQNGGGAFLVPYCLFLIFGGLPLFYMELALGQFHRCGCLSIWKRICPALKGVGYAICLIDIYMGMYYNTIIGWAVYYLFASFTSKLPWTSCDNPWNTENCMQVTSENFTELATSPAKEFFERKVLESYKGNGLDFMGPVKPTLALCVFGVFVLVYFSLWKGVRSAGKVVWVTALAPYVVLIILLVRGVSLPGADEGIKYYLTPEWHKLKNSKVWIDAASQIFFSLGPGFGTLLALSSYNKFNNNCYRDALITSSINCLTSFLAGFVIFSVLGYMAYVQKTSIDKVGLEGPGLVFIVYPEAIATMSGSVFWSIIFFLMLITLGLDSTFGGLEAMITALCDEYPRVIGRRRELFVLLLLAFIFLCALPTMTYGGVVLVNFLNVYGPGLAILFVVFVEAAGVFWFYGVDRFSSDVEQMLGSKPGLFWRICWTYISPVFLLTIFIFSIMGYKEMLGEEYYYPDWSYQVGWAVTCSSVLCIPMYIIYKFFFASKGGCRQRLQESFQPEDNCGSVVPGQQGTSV
To be noted: inhibitor 200 μM, [^3H]serotonin 100 nM; cited from earlier work.

In data set [4] the test system is C. elegans. Put plainly: fluoxetine-induced paralysis (liquid locomotion assay). The format is in vivo. An excerpt: (Five trials with 20 animals of each genotype at each concentration and the animals were scored for paralysis after ten minutes.) There was no difference in the time-course of paralysis at any of the concentrations tested. These observations indicate that fluoxetine-induced paralysis in C. elegans is not caused by the lack of serotonin uptake from synapses. Fluoxetine-treated wild-type and mod-5(n3314) mutant animals assumed a rigid body posture. […] Serotonin has been proposed to decrease excitatory input to the locomotory muscles (Nurrish et al., Neuron 24:231–242, 1999).
(§1) The plates were allowed to dry at room temperature with their lids removed for more than 2 hours.
Animals to be tested for sensitivity or insensitivity to serotonin in this liquid locomotion assay were picked as L4 animals 16–20 hours prior to assay and the plates were coded so that the experimenter was blind to the genotype of the animals to be scored. On the day of the assay, serotonin (as a creatinine sulphate salt) was dissolved just before use, in M9, at the required concentrations, and 200 μl were aliquoted to the wells of a flat-bottomed 96-well polystyrene plate. […] Fluoxetine-induced paralysis was scored in a similar manner at 10 min.

The test system of data set [5] is C. elegans. Kind of data set: enhanced slowing response (locomotory rate of food-deprived animals on bacteria). The format is in vivo. The protocol: as §1
For the experiment shown in FIG. 2, well-fed and food-deprived animals were transferred to assay plates with or without a bacterial lawn, and the locomotory rate of each animal was recorded after 5 min; food-deprived animals were transferred to plates without bacteria 30 min prior to the transfer to locomotory assay plates as is also described in Sawin et al. (Neuron 26:619–623, 2000). At least 10 trials were performed for each genotype for each condition. For FIG. 2, each trial involved testing at least five animals for each of the conditions; a given animal was tested in only one condition. p values were calculated by comparing the combined data for the mutants from all of the separate trials under one set of conditions to the combined data for the wild-type animals assayed in parallel under the same conditions. In FIG. 2B the data were obtained from three well-fed animals of each ablation state, seven mock-ablated and food-deprived animals, and 12 NSM-ablated and food-deprived animals. In FIG. 2D, serotonin dose-response curves for wild-type and mod-5 mutant animals were generated from averages of five trials with 20 animals of each genotype at each concentration in which animals were scored for movement after 5 min.
Alternatively, nematodes to be tested in a non-liquid locomotion assay were picked as L4 animals 16–20 hours prior to the assay. Locomotion was assayed by placing the nematode on an assay plate (prepared by spreading a solution of E. coli strain HB101 in NGM agar in 5 cm plates, using a ring with an inner diameter of approximately 1 cm and an outer diameter of approximately 3.5 cm, and allowing the bacteria to grow 13–15 hours at 37 C.), observing each nematode under a dissecting microscope for 20 seconds, and counting the number of dorsal-ventral bends that occurred in the anterior portion of the body during the interval.
To assay locomotion rates in food-deprived animals, 5–15 animals were removed from plates with ample food, washed twice in S-basal buffer, and transferred to 5 cm NGM agar plates without bacteria. Food-deprived animals were incubated on these plates for 30 minutes at room temperature, and then were transferred to assay plates. Locomotion rates were assayed as described above for satiated animals.

Data set [6] concerns C. elegans. Put plainly: egg-laying assay. The format is in vivo. As for the experimental part: Egg-laying assays were performed as described in Trent et al. (Genetics 104:619–647, 1983).
The test system of data set [7] is C. elegans. The conditions noted are these: in vivo; cited from earlier work.
Data set [8] relates to C. elegans. Kind of data set: fluoxetine-induced nose contraction. The format is in vivo. The conditions noted are these: 20 minutes. An excerpt:
This conclusion is consistent with the conclusion by Choy and Thomas (1999) that fluoxetine-mediated nose contraction is serotonin-independent, although their hypothesis was based on studies of cat-1(e1111) mutants, which are defective in signaling by several biogenic amines (Duerr et al., J Neurosci 19:72–84, 1999), and cat-4 mutants, which we found to not completely lack serotonin (FIG. 1B).

Data set [9] concerns other SERTs. To be noted: read-out: Km range of serotonin transport reported for other SERTs; cited from earlier work.
For data set [10], the system named is C. elegans NSMs. Kind of data set: serotonin uptake in vivo, anti-serotonin staining of NSMs. The conditions noted are these: tph-1, 2 mM 5-HT for 2 hours, no fluoxetine.
Substrate in data set [11]: NCCc1c[nH]c2ccc(O)cc12
Kind of data set: cells, lysate or membranes. To be noted: other: HEK293 GFPMOD-5 cells, Eadie-Hoftsee transformation; pH 7.4; 37.0 °C.

`COC(=O)[C@H]1[C@@H](OC(=O)c2ccccc2)C[C@@H]2CC[C@H]1N2C` [cocaine]: the affinity in data set [1] corresponds to a Ki of 4080 ± 349 nM.

Regarding `NC[C@H](O)c1ccc(O)c(O)c1` [NE, norepinephrine], in data set [2], the “MOD-5-mediated uptake of radiolabeled neurotransmitter” value (from here on “MOD-5-mediated uptake”) is given as “inefficient at translocating”.

On to `N[C@@H](CCC(=O)O)C(=O)O` [glutamate], for which the “MOD-5-mediated uptake” value in data set [2] is listed as “inefficient at translocating”.

As to `NCC(O)c1ccc(O)cc1` (stereo not drawn) [octopamine], in data set [2], the “transport of [^3H]serotonin by MOD-5, % of control” value is recorded as 86%±12%. Also, the “dSERT-mediated transport of [^3H]serotonin, % of control” value in data set [3] is recorded as 82%±15%.

Consider `NCCc1c[nH]cn1` [histamine], for which the “MOD-5-mediated uptake” value in [2] is listed as “inefficient at translocating”.

As for `NCCc1ccc(O)cc1` [tyramine], in [2], the “transport of [^3H]serotonin by MOD-5, % of control” value is given as 54%±10%. The “dSERT-mediated transport of [^3H]serotonin, % of control” value in [3] is on record as 95%±15%.

For the molecule `CNCCC(Oc1ccc(C(F)(F)F)cc1)c1ccccc1` (stereo not drawn) [fluoxetine], the “paralysis induced by fluoxetine treatment” value in data set [4] (mod-5(n3314) mutants vs wild-type, scored after ten minutes) is given as “retained wild-type sensitivity to fluoxetine”; in data set [4] (tph-1 mutants vs wild-type) it was “paralyzed tph-1 mutants to a similar extent as wild-type animals”. Besides, the “potentiation of the enhanced slowing response” value is listed as “exhibited a potentiated enhanced slowing response” in data set [5] (bas-1, cat-4 mutants preincubated with 2 mM serotonin); “potentiated by fluoxetine” in data set [5] (mod-1(ok103) mutants); “completely resistant” in [5] (mod-5(n3314), mod-1(ok103) double mutants); “slow their locomotory rate more” in [5] (wild-type, food-deprived in 0.22 mM fluoxetine). The stimulation of egg-laying entry in [6] (cat-4 mutants) is on record as “completely resistant”; in data set [6] (egl-1(n1084) mutants (lack HSNs)), “no effect on egg-laying”; in [6] (mod-5(n3314) mutants, 1.5 mM fluoxetine), “stimulated to lay eggs to nearly the same extent as was the wild-type”; in [6] (tph-1 mutants), “partially resistant”. For the same molecule, the “concentrations leading to paralysis, contraction of nose muscles, stimulation of egg-laying” value in [7] was 0.25–1 mg/ml and 0.7–2.9 mM. Further, the “proportion of animals with contracted noses” value is reported as 100% in [8] (tph-1, 2.9 mM); “approximately 25%” in data set [8] (wild-type and mod-5(n3314), 1.5 mM); 100% in data set [8] (wild-type and mod-5(n3314), 2.9 mM).

For the molecule `NCCc1ccc(O)c(O)c1` [dopamine], the “MOD-5-mediated uptake” value in data set [2] is listed as “inefficient at translocating”.

`CN(C)CCCN1c2ccccc2CCc2ccccc21` [imipramine]: the affinity in data set [1], expressed as Ki, was 89 ± 58 nM.

Turning to `NCCCC(=O)O` [GABA, gamma-aminobutyric acid], the “MOD-5-mediated uptake” value in data set [2] was “inefficient at translocating”.

On to `NCCc1c[nH]c2ccc(O)cc12` [serotonin], for which the Km in data set [9] is 0.28 to 0.63 µM. For the same molecule, the “Vmax of MOD-5-mediated [^3H]serotonin transport” value in data set [2] (HEK293 GFPMOD-5 cells) is given as 8.31×10^−9 nmoles per cell per min. Also, the “% Serotonin-positive NSMs” value in [10] (mod-5(n3314)) turned out to be 0%; in [10], 98%.

B1: MOD-5 CeSERT (Caenorhabditis elegans) (protein)
chain: T1 sequence (Q963F3 1-671)
As for B1, the Km in [11] was 0.15 ± 0.008 µM.

What is called Ki is a dissociation constant, usually derived from enzyme kinetics or from competition with a known ligand. Low readings indicate a stronger hold on the target, high ones a looser hold on the target. For orientation: Km means the substrate concentration at which the rate is half of its maximum.
